The source made the active and inactive calls. How the calls were made is not given here.

In this data set the test system is CCRIS mutagenicity, Ames/micronucleus/aberration tests. Briefly: CCRIS mutagenicity studies.
The mark [1] stands for this setting: Test System: AMES SALMONELLA TYPHIMURIUM, Strain/Indicator: TA1538, Metabolic Activation: NONE, Method: STANDARD PLATE.
Setting [2] is: Test System: AMES SALMONELLA TYPHIMURIUM, Strain/Indicator: TA1538, Metabolic Activation: RAT, LIVER, S-9, AROCLOR 1254, Method: STANDARD PLATE.
The mark [3] stands for this setting: Test System: AMES SALMONELLA TYPHIMURIUM, Strain/Indicator: TA100, Metabolic Activation: NONE, Method: STANDARD PLATE.
Where [4] appears, read: Test System: AMES SALMONELLA TYPHIMURIUM, Strain/Indicator: TA98, Metabolic Activation: NONE, Method: PREINCUBATION
Where [5] appears, read: Test System: AMES SALMONELLA TYPHIMURIUM, Strain/Indicator: TA100, Metabolic Activation: NONE, Method: PREINCUBATION
Where [6] appears, read: Test System: AMES SALMONELLA TYPHIMURIUM, Strain/Indicator: TA98, Metabolic Activation: RAT, LIVER, S-9, AROCLOR 1254, Method: STANDARD PLATE.
Setting [7] is: Test System: AMES SALMONELLA TYPHIMURIUM, Strain/Indicator: TA100, Metabolic Activation: RAT, LIVER, S-9, AROCLOR 1254, Method: STANDARD PLATE.
[8] abbreviates: Test System: AMES SALMONELLA TYPHIMURIUM, Strain/Indicator: TA1535, Metabolic Activation: NONE, Method: STANDARD PLATE.
The mark [9] stands for this setting: Test System: AMES SALMONELLA TYPHIMURIUM, Strain/Indicator: TA1537, Metabolic Activation: NONE, Method: STANDARD PLATE.

Consider `CC1=C(C)C2(C3=CC(=O)C=CC3=Nc3ccc(O)cc32)C(C)=C(C)C1=O`, for which the mutagenic call was “inactive; negative” under setting [1] and “inactive; negative” under setting [2].
`CCOC(=O)CNC(=O)C(C)(C)Br`: the mutagenic call is “inactive; negative” (Test System: AMES SALMONELLA TYPHIMURIUM, Strain/Indicator: TA100, Metabolic Activation: MOUSE, LIVER, S-9, AROCLOR 1254, Method: STANDARD PLATE) and “inactive; negative” under setting [3].
Take `CC(C)Oc1ccc(Nc2ccccc2)cc1`: the mutagenic call is “inactive; negative; authors describe results as inconclusive” (End Point: IN VITRO CHROMOSOMAL ABERRATIONS, Test System: CHINESE HAMSTER LUNG CELLS (CHL), Metabolic Activation: RAT, LIVER, S-9, KC-400); “inactive; negative” (End Point: IN VITRO CHROMOSOMAL ABERRATIONS, Test System: CHINESE HAMSTER OVARY CELLS (CHO), Metabolic Activation: NONE); “inactive; negative” (End Point: IN VITRO CHROMOSOMAL ABERRATIONS, Test System: CHINESE HAMSTER OVARY CELLS (CHO), Metabolic Activation: RAT, LIVER, S-9, AROCLOR 1254); “inactive; negative” (End Point: IN VITRO CHROMOSOMAL ABERRATIONS, Test System: CHO-LB CELLS, Metabolic Activation: NONE); “inactive; negative” (End Point: IN VITRO CHROMOSOMAL ABERRATIONS, Test System: CHO-LB CELLS, Metabolic Activation: RAT, LIVER, S-9, AROCLOR 1254); “inactive; negative” (Test System: AMES SALMONELLA TYPHIMURIUM, Strain/Indicator: TA97, Metabolic Activation: HAMSTER, LIVER, S-9, AROCLOR 1254 (10 OR 30%), Method: PREINCUBATION). Besides, the mutagenic call is “inactive; negative” (Test System: AMES SALMONELLA TYPHIMURIUM, Strain/Indicator: TA97, Metabolic Activation: NONE, Method: PREINCUBATION); “inactive; negative” (Test System: AMES SALMONELLA TYPHIMURIUM, Strain/Indicator: TA97, Metabolic Activation: RAT, LIVER, S-9, AROCLOR 1254 (10 OR 30%), Method: PREINCUBATION); “inactive; negative” (Test System: AMES SALMONELLA TYPHIMURIUM, Strain/Indicator: TA98, Metabolic Activation: HAMSTER, LIVER, S-9, AROCLOR 1254 (10 OR 30%), Method: PREINCUBATION); “inactive; negative” under setting [4]; “inactive; negative” (Test System: AMES SALMONELLA TYPHIMURIUM, Strain/Indicator: TA98, Metabolic Activation: RAT, LIVER, S-9, AROCLOR 1254 (10 OR 30%), Method: PREINCUBATION); “inactive; negative” (Test System: AMES SALMONELLA TYPHIMURIUM, Strain/Indicator: TA100, Metabolic Activation: HAMSTER, LIVER, S-9, AROCLOR 1254 (10 OR 30%), Method: PREINCUBATION). The mutagenic call reads like this: under setting [5], “inactive; negative”; (Test System: AMES SALMONELLA TYPHIMURIUM, Strain/Indicator: TA100, Metabolic Activation: RAT, LIVER, S-9, AROCLOR 1254 (10 OR 30%), Method: PREINCUBATION) “inactive; negative”; (Test System: AMES SALMONELLA TYPHIMURIUM, Strain/Indicator: TA1535, Metabolic Activation: HAMSTER, LIVER, S-9, AROCLOR 1254 (10 OR 30%), Method: PREINCUBATION) “inactive; negative”; (Test System: AMES SALMONELLA TYPHIMURIUM, Strain/Indicator: TA1535, Metabolic Activation: NONE, Method: PREINCUBATION) “inactive; negative”; (Test System: AMES SALMONELLA TYPHIMURIUM, Strain/Indicator: TA1535, Metabolic Activation: RAT, LIVER, S-9, AROCLOR 1254 (10 OR 30%), Method: PREINCUBATION) “inactive; negative”.
With `NC1CCCC(N)C1` (stereo not drawn), the mutagenic call under setting [4] was “inactive; negative”; the mutagenic call (Test System: AMES SALMONELLA TYPHIMURIUM, Strain/Indicator: TA98, Metabolic Activation: RAT, LIVER, S-9, PCB, Method: PREINCUBATION) was “inactive; negative”; the mutagenic call under setting [5] is “inactive; negative”; the mutagenic call (Test System: AMES SALMONELLA TYPHIMURIUM, Strain/Indicator: TA100, Metabolic Activation: RAT, LIVER, S-9, PCB, Method: PREINCUBATION) is “inactive; negative”.
Regarding `CN(CCC#N)c1ccc(N=Nc2ccccc2)cc1`, under “Test System: AMES SALMONELLA TYPHIMURIUM, Strain/Indicator: TA98, Metabolic Activation: RAT, LIVER, S-9, AROCLOR, Method: PREINCUBATION”, the mutagenic call was “active; positive”.
Regarding `Cc1ccc(N(CCO)CCO)cc1`, the mutagenic call (Test System: AMES SALMONELLA TYPHIMURIUM, Strain/Indicator: TA1535, Metabolic Activation: RAT, LIVER, S-9, AROCLOR 1254 (2.5%), Method: PREINCUBATION) is “active; positive”; the mutagenic call (Test System: Mouse lymphoma, Strain/Indicator: L5178Y (tk+/tk-), Metabolic Activation: None, Method: Suspension/plate) was “inactive; negative”; the mutagenic call (Test System: Mouse lymphoma, Strain/Indicator: L5178Y (tk+/tk-), Metabolic Activation: Rat, Liver, S-9, Aroclor 1254, Method: Suspension/plate) is recorded as “inconclusive (previous evaluation equivocal)”.
Regarding `O=C(O)c1nn(Cc2ccc(Cl)cc2Cl)c2ccccc12`, the mutagenic call reads like this: (Test System: AMES SALMONELLA TYPHIMURIUM, Strain/Indicator: TA98, Metabolic Activation: NONE, Method: STANDARD PLATE) “inactive; negative”; under setting [6], “inactive; negative”; under setting [3], “inactive; negative”; under setting [7], “inactive; negative”; under setting [8], “inactive; negative”; (Test System: AMES SALMONELLA TYPHIMURIUM, Strain/Indicator: TA1535, Metabolic Activation: RAT, LIVER, S-9, AROCLOR 1254, Method: STANDARD PLATE) “inactive; negative”. Besides, the mutagenic call reads like this: under setting [9], “inactive; negative”; (Test System: AMES SALMONELLA TYPHIMURIUM, Strain/Indicator: TA1537, Metabolic Activation: RAT, LIVER, S-9, AROCLOR 1254, Method: STANDARD PLATE) “inactive; negative”; under setting [1], “inactive; negative”; under setting [2], “inactive; negative”; (Test System: CHINESE HAMSTER OVARY, Strain/Indicator: CHO-K1-BH4 (HPRT), Metabolic Activation: NONE) “inactive; negative”; (Test System: CHINESE HAMSTER OVARY, Strain/Indicator: CHO-K1-BH4 (HPRT), Metabolic Activation: RAT, LIVER, S-9, AROCLOR 1254) “inactive; negative”.
On to `C1CSCCS1`, for which the mutagenic call was “inactive; negative” under setting [6]; “inactive; negative” (Test System: AMES SALMONELLA TYPHIMURIUM, Strain/Indicator: TA98, Metabolic Activation: S-9, Method: STANDARD PLATE); “inactive; negative” under setting [7]; “inactive; negative” (Test System: AMES SALMONELLA TYPHIMURIUM, Strain/Indicator: TA100, Metabolic Activation: S-9, Method: STANDARD PLATE); “inactive; negative” under setting [8]; “inactive; negative” (Test System: AMES SALMONELLA TYPHIMURIUM, Strain/Indicator: TA1535, Metabolic Activation: S-9, Method: STANDARD PLATE). Also, the mutagenic call under setting [9] was “inactive; negative”; the mutagenic call (Test System: AMES SALMONELLA TYPHIMURIUM, Strain/Indicator: TA1537, Metabolic Activation: S-9, Method: STANDARD PLATE) is “inactive; negative”; the mutagenic call under setting [1] was “inactive; negative”; the mutagenic call (Test System: AMES SALMONELLA TYPHIMURIUM, Strain/Indicator: TA1538, Metabolic Activation: S-9, Method: STANDARD PLATE) was “inactive; negative”.
`CCn1cc(C(=O)O)c(=O)c2cc(F)c(N3CCN(C)CC3)cc21`: the mutagenic call is “active; positive” (Test System: AMES SALMONELLA TYPHIMURIUM, Strain/Indicator: TA102, Metabolic Activation: NONE, Method: STANDARD PLATE) and “inactive; negative” (Test System: CHINESE HAMSTER V-79, Strain/Indicator: V-79 (HPRT)/6-THIOGUANINE, Metabolic Activation: NONE).

For the origin of these results see PubChem BioAssay AID1259407 (Chemical Carcinogenesis Research Information System (CCRIS), 2018).
